Values of other authors as cited in patent publication US10507186B2, “Methods and compositions particularly for treatment of attention deficit disorder” (Purdue Pharma L.P., priority 2014, dated 2019).
Where a name gives a salt, the structure may show the parent alone. Read-outs that look alike come from different tables or passages of the source.

Key:
[1] = tested on: ADHD symptoms in patients; conditions: long-acting lisdexamfetamine dimesylate

## COC(=O)C(c1ccccc1)C1CCCCN1 (racemic) [Methylphenidate, dl-threo-methyl-2-phenyl-2-(2-piperidyl)acetate]
As the pH increases to 8.9
  degradation amount: up to 100%
In acidic solutions
  stability: relatively stable
In basic solutions, hydrolysis of the methyl ester to the free acid
  stability: degraded extensively

## COC(=O)C(c1ccccc1)C1CCCCN1 (stereo not drawn) [Methylphenidate hydrochloride]
In acetone
  solubility: slightly soluble
In alcohol
  solubility: soluble
In chloroform
  solubility: slightly soluble
In methanol
  solubility: freely soluble
In water
  solubility: freely soluble

## lisdexamfetamine dimesylate
[1]
  reported duration of action: up to 14 hours
